Assay results published in BindingDB's records for doi:10.1021/jm300416h (Taiho Pharmaceutical, 2012).

experiment: Inhibition of human dUTPase-mediated cell proliferation in HeLa S3 cells after 72 hrs by crystal violet staining

IC50 [nM]	SMILES
38200	C[C@@H](NS(=O)(=O)CC/C=C/Cn1ccc(=O)[nH]c1=O)c1cccc(OCC2CC2)c1

experiment: Inhibition of human dUTPase-mediated cell proliferation in HeLa S3 cells assessed as compound concentration required to reduce 50% of 1 uM of FdUrd T/C after 24 hrs by crystal violet staining

EC50 [nM]	SMILES
200	CC(C)(CC/C=C/Cn1ccc(=O)[nH]c1=O)NS(=O)(=O)c1cccc(OC2CCCC2)c1
610	C[C@@H](NS(=O)(=O)c1ccc(Cn2ccc(=O)[nH]c2=O)cc1)c1cccc(OCC(F)F)c1
2600	CC(C)(NS(=O)(=O)c1ccccc1)c1ccc(Cn2ccc(=O)[nH]c2=O)cc1
3130	COc1cccc(S(=O)(=O)NC(C)(C)c2ccc(Cn3ccc(=O)[nH]c3=O)cc2)c1
66	C[C@@H](NS(=O)(=O)CC/C=C/Cn1ccc(=O)[nH]c1=O)c1cccc(OCC2CC2)c1
140	CC(C)(NS(=O)(=O)c1cccc(OCC2CC2)c1)c1ccc(Cn2ccc(=O)[nH]c2=O)cc1
100	CC(C)(NS(=O)(=O)c1cccc(OCC(F)F)c1)c1ccc(Cn2ccc(=O)[nH]c2=O)cc1
120	CC(C)(NS(=O)(=O)c1cccc(OC2CCCC2)c1)c1ccc(Cn2ccc(=O)[nH]c2=O)cc1
2600	CC(C)(CC/C=C/Cn1ccc(=O)[nH]c1=O)NS(=O)(=O)c1ccccc1
450	COc1cccc(S(=O)(=O)NC(C)(C)CC/C=C/Cn2ccc(=O)[nH]c2=O)c1
930	C[C@@H](NS(=O)(=O)c1ccc(Cn2ccc(=O)[nH]c2=O)cc1)c1cccc(OCC2CC2)c1
96	C[C@@H](NS(=O)(=O)CC/C=C/Cn1ccc(=O)[nH]c1=O)c1cccc(OCC(F)F)c1
49	CC(C)(CC/C=C/Cn1ccc(=O)[nH]c1=O)NS(=O)(=O)c1cccc(OCC(F)F)c1
5100	CC(C)(CCCOCn1ccc(=O)[nH]c1=O)NS(=O)(=O)c1ccccc1
150	C[C@@H](NS(=O)(=O)CC/C=C/Cn1ccc(=O)[nH]c1=O)c1cccc(OC2CCCC2)c1
610	C[C@@H](NS(=O)(=O)c1ccc(Cn2ccc(=O)[nH]c2=O)cc1)c1cccc(OC2CCCC2)c1
